# Target: T1, sodium-proton exchanger of subtype 3 (NHE3) (Homo sapiens, UniProt P48764)
# T1 construct: expressed in transfected cells
# T1 sequence (P48764 26-834): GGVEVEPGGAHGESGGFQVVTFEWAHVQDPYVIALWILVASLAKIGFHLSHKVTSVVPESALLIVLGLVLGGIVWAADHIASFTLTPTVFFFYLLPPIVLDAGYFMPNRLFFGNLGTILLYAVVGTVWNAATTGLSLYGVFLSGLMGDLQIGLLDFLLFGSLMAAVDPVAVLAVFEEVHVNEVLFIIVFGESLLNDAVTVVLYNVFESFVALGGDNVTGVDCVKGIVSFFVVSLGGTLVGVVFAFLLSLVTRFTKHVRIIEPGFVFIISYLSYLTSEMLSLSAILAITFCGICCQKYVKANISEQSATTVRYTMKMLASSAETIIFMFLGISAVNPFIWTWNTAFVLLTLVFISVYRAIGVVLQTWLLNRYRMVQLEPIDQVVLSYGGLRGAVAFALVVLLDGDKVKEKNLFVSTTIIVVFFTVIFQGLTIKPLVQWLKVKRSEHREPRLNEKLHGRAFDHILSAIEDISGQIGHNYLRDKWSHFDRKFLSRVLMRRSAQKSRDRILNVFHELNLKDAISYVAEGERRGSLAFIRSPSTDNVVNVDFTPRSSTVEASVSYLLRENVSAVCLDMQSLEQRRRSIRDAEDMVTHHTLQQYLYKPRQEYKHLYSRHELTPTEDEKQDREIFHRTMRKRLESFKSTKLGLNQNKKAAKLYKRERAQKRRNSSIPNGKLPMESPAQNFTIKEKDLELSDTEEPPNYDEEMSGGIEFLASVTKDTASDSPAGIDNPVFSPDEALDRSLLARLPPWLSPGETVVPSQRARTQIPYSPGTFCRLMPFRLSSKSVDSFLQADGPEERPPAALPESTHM
# Test: Recovery of intracellular pH (pHi) after acidification in LAP1 cells stably expressing NHE3 (BCECF fluorescence, FLIPR)
# Format: cell-based
# Details: LAP1 cells stably expressing NHE3; pH recovery after acidification; range 1 is % inhibition at 10 μM; read-out: Activity range (inhibitory effect on NHE3)
Structure (SMILES),inhibition at 10 µM [%],IC50 [nM]
"CN(C)[C@H]1Cc2c(Cl)cc(Cl)cc2[C@@H]1Oc1ccc(-n2ccnc2)cc1 (racemic) [Example 216, [rac-trans-(1,2)-4,6-dichloro-1-(4-imidazol-1-ylphenoxy)indan-2-yl]dimethylamine]",20 to 50,
"Cc1nnc(C)n1-c1ccc(O[C@H]2c3c(Cl)sc(Cl)c3CC[C@@H]2N2CCCC2)cc1 (racemic) [Example 496, 4-[4-(1,3-dichloro-5-pyrrolidin-1-yl-4,5,6,7-tetrahydrobenzo[c]thiophen-4-yloxy)phenyl]-3,5-dimethyl-4H-[1,2,4]triazole]",,1000 to 10000
"CCCc1ccc(NC(C)=O)cc1O[C@H]1c2ccccc2CC[C@@H]1N1CCC[C@@H](N)C1 (racemic) [Example 675, N-{3-[rac-trans-(1,2)-2-((R)-3-aminopiperidin-1-yl)-1,2,3,4-tetrahydronaphthalen-1-yloxy]-4-propylphenyl}acetamide]",,1000 to 10000
"N#Cc1ccc(CO[C@H]2c3cc(Cl)cc(Cl)c3C[C@@H]2N2CC[C@@H](O)C2)c(F)c1 [Example 482, 4-[(1S,2S)-4,6-dichloro-2-((R)-3-hydroxypyrrolidin-1-yl)indan-1-yloxymethyl]-3-fluorobenzonitrile]",20 to 50,
"CN(C)C(=O)Cc1ccc(O[C@H]2c3ccccc3CC[C@@H]2N2CCC[C@@H](N)C2)cc1 (racemic) [Example 380, 2-{4-[rac-trans-(1,2)-2-((R)-3-aminopiperidin-1-yl)-1,2,3,4-tetrahydronaphthalen-1-yloxy]phenyl}-N,N-dimethylacetamide]",20 to 50,
"N[C@@H]1CCCN([C@H]2CCc3ccccc3[C@@H]2Oc2ccc(Cl)nc2)C1 (racemic) [Example 81, (R)-1-[rac-trans-(1,2)-1-(6-chloropyridin-3-yloxy)-1,2,3,4-tetrahydronaphthalen-2-yl]piperidin-3-ylamine]",20 to 50,
"CS(=O)(=O)c1ccc(O[C@H]2c3cc(F)ccc3C[C@@H]2N2CCNCC2)cc1 (racemic) [Example 294, 1-[rac-trans-(1,2)-6-fluoro-1-(4-methanesulfonylphenoxy)indan-2-yl]piperazine]",,1000 to 10000
"N[C@H]1CCCN([C@H]2CCc3ccccc3[C@@H]2Oc2ccc(F)cc2-c2ccno2)C1 (racemic) [Example 178, (S)-1-[rac-trans-(1,2)-1-(4-fluoro-2-isoxazol-5-ylphenoxy)-1,2,3,4-tetrahydronaphthalen-2-yl]piperidin-3-ylamine]",20 to 50,
"NS(=O)(=O)c1ccc(O[C@H]2c3cc(Cl)cc(Cl)c3C[C@@H]2N2CCS(=O)(=O)CC2)cc1 [Example 483, 4-[(1S,2S)-4,6-dichloro-2-(1,1-dioxo-1lambda6-thiomorpholin-4-yl)indan-1-yloxy]benzenesulfonamide]",,< 1000
"O=C1COCC(=O)N1c1ccc(O[C@H]2c3cc(Cl)cc(Cl)c3C[C@@H]2N2CC[C@@H](O)C2)c(F)c1 [Example 560, 4-{4-[(1S,2S)-4,6-dichloro-2-((R)-3-hydroxypyrrolidin-1-yl)indan-1-yloxy]-3-fluorophenyl}morpholine-3,5-dione]",,< 1000
"COc1cccc(F)c1O[C@@H]1c2ccccc2C[C@H]1N1CCC(CN)C1 (mixture of isomers) [Example 605, C-{1-[rac-trans-(1,2)-1-(2-fluoro-6-methoxyphenoxy)indan-2-yl]pyrrolidin-3-yl}methylamine]",,1000 to 10000
"N[C@@H]1CCCN([C@H]2CCc3ccccc3[C@@H]2Oc2ccc(C(F)(F)F)cc2)C1 (racemic) [Example 77, (R)-1-[rac-trans-(1,2)-1-(4-trifluoromethylphenoxy)-1,2,3,4-tetrahydronaphthalen-2-yl]piperidin-3-ylamine]",20 to 50,
"CC(C)c1nccn1-c1ccc(O[C@H]2c3cc(Cl)cc(Cl)c3C[C@@H]2N2CC[C@@H](O)C2)cc1 [Example 732, (R)-1-{trans-(1S,2S)-4,6-Dichloro-1-[4-(2-isopropyl-imidazol-1-yl)-phenoxy]-indan-2-yl}-pyrrolidin-3-ol]",,1000 to 10000
"CC(=O)Nc1cccc(O[C@H]2c3cc(Cl)cc(Cl)c3C[C@@H]2N2CCCC2)c1 (racemic) [Example 648, N-[3-(rac-trans-(1,2)-4,6-dichloro-2-pyrrolidin-1-ylindan-1-yloxy)phenyl]acetamide]",,1000 to 10000
"N#Cc1cc(Cl)ccc1O[C@@H]1c2ccccc2C[C@H]1N1CCC(N)C1 (mixture of isomers) [Example 375, 2-[rac-trans-(1,2)-2-(3-aminopyrrolidin-1-yl)indan-1-yloxy]-5-chlorobenzonitrile]",,1000 to 10000
"N#Cc1ccc(S[C@H]2c3ccccc3C[C@@H]2N2CCCC2)cc1 [Example 455, 4-((1S,2S)-2-pyrrolidin-1-ylindan-1-ylsulfanyl)benzonitrile]",20 to 50,
"Cc1nnc(C)n1-c1ccc(O[C@H]2c3cc(Cl)cc(Cl)c3C[C@@H]2N2CCOCC2)c(F)c1 [Example 564, 4-{trans-(1S,2S)-4,6-dichloro-1-[4-(3,5-dimethyl-[1,2,4]triazol-4-yl)-2-fluorophenoxy]indan-2-yl}morpholine]",,< 1000
"CC1(C)NC(=O)N(c2ccc(O[C@H]3c4cc(Cl)cc(Cl)c4C[C@@H]3N3CC[C@@H](O)C3)c(Cl)c2)C1=O [Example 423, 3-{3-chloro-4-[(1S,2S)-4,6-dichloro-2-((R)-3-hydroxypyrrolidin-1-yl)indan-1-yloxy]phenyl}-5,5-dimethylimidazolidine-2,4-dione]",,1000 to 10000
"CN1CCN([C@H]2Cc3c(Cl)cc(Cl)cc3[C@@H]2Oc2ccc(S(C)(=O)=O)cc2)CC1 [Example 306, 1-[trans-(1S,2S)-4,6-dichloro-1-(4-methanesulfonylphenoxy)indan-2-yl]-4-methylpiperazine]",,1000 to 10000
"Cc1nnc(C)n1-c1ccc(O[C@H]2c3cc(Cl)ccc3C[C@@H]2N2CCCC2)c(Cl)c1 [Example 492, 4-[3-chloro-4-(trans-(1S,2S)-6-chloro-2-pyrrolidin-1-ylindan-1-yloxy)phenyl]-3,5-dimethyl-4H-[1,2,4]triazole]",,< 1000
"CC(=O)Nc1cccc(O[C@H]2c3cc(Cl)cc(Cl)c3C[C@@H]2N(C)C)c1 (racemic) [Example 645, N-[3-(rac-trans-(1,2)-4,6-dichloro-2-dimethylaminoindan-1-yloxy)phenyl]acetamide]",,1000 to 10000
"Fc1ccc(O[C@H]2c3ccccc3CC[C@@H]2N2CCOCC2)c2ncccc12 (racemic) [Example 586, 5-fluoro-8-(rac-trans-(1,2)-2-morpholin-4-yl-1,2,3,4-tetrahydronaphthalen-1-yloxy)quinoline]",20 to 50,
"NS(=O)(=O)c1ccc(O[C@@H]2c3ccccc3C[C@H]2NC2CCCC2)c(F)c1 (racemic) [Example 460, 4-(2-cyclopentylaminoindan-1-yloxy)-3-fluorobenzenesulfonamide]",,< 1000
"Cn1ccn(-c2ccc(F)c(O[C@H]3c4cc(F)cc(F)c4C[C@@H]3N3CC[C@@H](O)C3)c2)c1=O [Example 317, 1-{3-[(1S,2S)-4,6-difluoro-2-((R)-3-hydroxypyrrolidin-1-yl)indan-1-yloxy]-4-fluorophenyl}-3-methyl-1,3-dihydroimidazol-2-one]",,1000 to 10000
"NC(=O)c1ccc(O[C@@H]2c3ccccc3C[C@H]2N2CCC(N)C2)cc1 (mixture of isomers) [Example 544, 4-[rac-trans-(1,2)-2-(3-aminopyrrolidin-1-yl)indan-1-yloxy]benzamide]",,1000 to 10000
